Among the data in BindingDB's records for doi:10.7270/Q25D8QFV (Burnham Center For Chemical Genomics, 2012) are IC50 values, retold here.

The experiment addresses T1, Mitochondrial import inner membrane translocase subunit TIM23 (Saccharomyces cerevisiae (strain ATCC 204508 / S288c), UniProt P32897).
T1 sequence (P32897 whole entry): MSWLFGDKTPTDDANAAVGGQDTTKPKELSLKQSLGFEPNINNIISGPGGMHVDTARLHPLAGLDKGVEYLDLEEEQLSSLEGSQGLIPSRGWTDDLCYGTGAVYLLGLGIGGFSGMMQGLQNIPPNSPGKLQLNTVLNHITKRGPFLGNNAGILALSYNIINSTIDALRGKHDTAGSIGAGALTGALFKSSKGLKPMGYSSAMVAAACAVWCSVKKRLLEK
The experiment is described as follows: analog potency on tim23-1 yeast growth – luminescence, S. cerevisiae, SAR follow-up (AID 602375).

One may read the IC50 as the concentration needed to halve the response being measured.

As for `Cc1ccc2nc(-n3c(O)c[nH]c3=S)sc2c1`, the 50% inhibitory concentration (IC50) stood at 50.3 µM.
`CCOc1ccc2nc(-n3c(O)c[nH]c3=S)sc2c1` [3-(6-Ethoxy-benzothiazol-2-yl)-2-thioxo-imidazolidin-4-one]: the half-maximal inhibitory concentration (IC50) is > 99 µM.
On to `Cc1c2c(n(Cc3ccco3)c1C)N=CN1C=CS(=O)(=O)NC21` (stereo not given) [8-(furan-2-ylmethyl)-9,10-dimethyl-3,4-dihydropyrrolo[1,2]pyrimido[3,5-b][1,2,4]thiadiazine 2,2-dioxide], for which the IC50 was > 99 µM.
In turn, `C(=CN=Nc1nc2ccccc2[nH]1)Cc1ccccc1` [MLS000390936] returned an IC50 of 11.2 µM.
`Cc1ccc(C2NN=C(c3ccc(Cl)cc3Cl)S2)cc1` (stereo not given) [MLS-0463404.0001] gave an IC50 of 44.3 µM.
